Source: US9155741B2, “Methods of using a methylxanthine compound” (The Trustees of the University of Pennsylvania, priority 2008, dated 2015)

Columns and labels:
[1] = target: T1, cytochrome oxidase (CcOX) (Rattus norvegicus, UniProt P05503); experiment: Myocardial cytochrome oxidase steady-state kinetic activity in isolated cardiac mitochondria after CLP or sham operation; type: in vivo
T1 construct: from tissue; host or cells: mitochondria isolated from cardiac ventricles of Sprague-Dawley rats
Procedure: (§1) The care of the animals in this study was in accordance with NIH and Institutional Animal Care and Use Committee guidelines. Under isoflurane general anesthesia (up to 2%), 250 g male Sprague-Dawley rats (Charles River, Boston, Mass., USA) underwent cecal ligation and double puncture (CLP) with an 18-gauge needle or sham operation as previously described. All animals were administered 50 ml/kg saline subcutaneously immediately post procedure and every 24 hours. Once awake, animals were given access to food and water ad libitum.
(§2) Twenty four and 48 hours post-procedure, rats received either an intraperitoneal (i.p) injection of caffeine (7.5 mg/kg, Sigma-Aldrich, St. Louis, Mo.) or equal volume saline (1 mL). […] Four cohorts were evaluated: SHAM saline, SHAM caffeine, CLP saline, CLP caffeine. […]
(§3) Cardiac ventricles were harvested and homogenized in ice-cold H medium (70 mM sucrose, 220 mM mannitol, 2.5 mM Hepes, pH 7.4 and 2 mM EDTA). […] Pellets were again resuspended in H medium and mitochondrial protein concentration determined using the method of Lowry.
CcOX kinetics were assayed by the method of Smith in which the rate of oxidation of ferrocytochrome c was measured by following the decrease in absorbance at 550 nm. […] Specific activity was calculated from mean values of three to four measurements using 21.1 mM−cm^−1 as the extinction coefficient of ferrocytochrome c at 550 nm. […]

[2] = tested on: cytochrome oxidase subunit I (CcOX-I); experiment: Immunoblot of steady-state levels of cardiac cytochrome oxidase subunit I; type: in vivo, rat; conditions: between all groups (SHAM/CLP, saline/caffeine), normalized to porin
Procedure: as §1, §2, §3
10 μg samples of mitochondrial protein were subjected to SDS-acrylamide gel electrophoresis and immunoblotting. […] The signal was detected with enhanced chemiluminescence (ECL; Amersham Pharmacia Biotech, Piscataway, N.J., USA), and density was measured using scanning densitometry. Five animals per group per experiment were evaluated.

isolated rat heart = experiment: Isolated rat heart preparation (left ventricular function, coronary perfusion, oxygen extraction and consumption) after CLP or sham operation; type: in vivo; conditions: for heart rate: mean +/- SD
Procedure: as §1
Twenty four and 48 hours post-procedure, rats received either an intraperitoneal (i.p) injection of caffeine (7.5 mg/kg, Sigma-Aldrich, St. Louis, Mo.) or equal volume saline (1 mL). Rats were sacrificed one hour after the 48 hour injection following euthanasia with 150 mg/kg of intraperitoneal pentobarbital. Four cohorts were evaluated: SHAM saline, SHAM caffeine, CLP saline, CLP caffeine. N=5 per group. The 24-hour time point was chosen for initial intervention based on the onset of the hypodynamic phase when cardiac function begins to deteriorate and the presence of reversible CcOX inhibition. Studies were performed at the 48-hour time point because this time point represents the late phase of sepsis when cardiac function is markedly depressed and mortality is 75%.
Rats were anesthetized with intraperitoneal pentobarbital (70 mg/kg) and heparinized (1000 U IP). The heart was excised rapidly and the aorta was cannulated. Retrograde perfusion was initiated at constant flow (12 mL/g-min) with a modified Krebs-Henseleit buffer containing (mmol/L) NaCl 120, KCl 4.7, MgSO4 1.2, KH2PO4 1.2, CaCl2 1.25, NaHCO3 25, and glucose. The non-recirculating buffer was maintained at pH 7.4 equilibrated with 95% O2-5% CO2 at 37° C. Isovolumetric left ventricle pressure (LVP) was measured with a transducer connected to a saline-filled latex balloon inserted into the left ventricle through the left atrium. The balloon was inflated to maintain an end-diastolic pressure of 10 mmHg Hearts were immersed in a water-jacketed chamber maintained at 37° C. and allowed to stabilize for 30 minutes.
Heart rate, LVP, the maximum rate of positive and negative change in LVP (+/−dP/dt), and aortic pressure were collected with an analog-to-digital converter system (Power Laboratory 4SP, ADlnstruments, Castle Hill, Australia). […] Measurements were obtained at coronary flow rates (CF) of 12, 10, 8, 6, and 4 mL/g-min Coronary inflow oxygen tension (PaO2) and coronary sinus oxygen tension (PvO2) were measured (GEM Premier 3000, Instrumentation Laboratory, Belgium). Percent O2 extraction was calculated as 100×(PaO2-PvO2/PaO2). Myocardial O2 consumption (MO2) was calculated as CF/g×(PaO2-PvO2)×O2 solubility at 760 mmHg O2 solubility is 24 |il/ml H2O at 37° C. Coronary perfusion pressure was calculated as the difference between mean aortic pressure and LV end-diastolic pressure. Coronary resistance was calculated by dividing perfusion pressure by coronary flow.

[3] = tested on: cecal ligation and puncture (CLP) sepsis model; experiment: Survival to 96 hours following CLP or sham operation; type: in vivo, rat
Procedure: as §1
The survival was followed in a separate cohort of animals in this two treatment parallel-design study to 96 hours. Each animal was injected with either caffeine (7.5 mg/kg i.p.) or equal volume of saline (1 mL i.p.) every 24 hours beginning 24 hours following CLP or sham operation. Twenty animals per group were evaluated based on the probability being 80 percent that the study will detect a treatment difference at a two-sided 5.0 percent significance level, if the true hazard ratio is 3.
Data are presented as mean +/− standard deviation. Statistical significance was assessed using ANOVA and post hoc Tukey's test with p<0.05. Statistical significance in the survival study was assessed using Kaplan-Meier survival curves and Mantel-Cox log-rank test.

[4] = CLP caffeine, 12 mL/g-min coronary flow, compared to saline injected sham values (so in the source)
[5] = CLP caffeine, toward saline injected sham values, most flow rates
[6] = sham caffeine vs both CLP groups, all coronary flow rates
[7] = sham caffeine vs saline injected sham, highest flow rates

Cn1c(=O)c2c(ncn2C)n(C)c1=O [caffeine]
myocardial CcOX kinetic activity normalized to citrate synthase activity ([1]; CLP rats, 48 hours, caffeine 7.5 mg/kg i.p. at 24 and 48 hours, vs sham): restored CcOX kinetic activity in CLP rats to sham values
myocardial CcOX kinetic activity normalized to citrate synthase activity ([1]; sham animals, caffeine injected vs saline injected): no significant difference
steady-state myocardial CcOX I levels [2]: no significant difference
coronary resistance (isolated rat heart; CLP caffeine vs CLP saline): significantly increased
coronary perfusion pressure (isolated rat heart; CLP caffeine vs CLP saline, 12 mL/g-min coronary flow): significantly increased
left ventricular pressure (LVP) (isolated rat heart; CLP caffeine vs CLP saline, all flow rates greater than 4 mL/g-min): significantly improved
left ventricular pressure (LVP) (isolated rat heart; CLP caffeine vs saline injected sham, flow rates except 12 mL/g-min): approached saline injected sham values
left ventricular pressure (LVP) (isolated rat heart; CLP caffeine vs sham cohorts, 12 mL/g-min coronary flow): significantly lower than both sham cohorts
coronary perfusion pressure (isolated rat heart; CLP caffeine vs sham controls, almost all coronary flow rates): significant reductions
myocardial oxygen consumption (isolated rat heart; [4]): significantly increased
myocardial oxygen extraction (isolated rat heart; [4]): significantly increased
heart rate (isolated rat heart; CLP caffeine): 262+/−11 bpm
+dP/dt (isolated rat heart; [5]): significantly improved
−dP/dt (isolated rat heart; [5]): significantly improved
left ventricular pressure (LVP) (isolated rat heart; sham caffeine vs all other groups, highest coronary flow rates): significantly increased
myocardial oxygen consumption (isolated rat heart; sham caffeine vs both CLP cohorts, 12 mL/g-min coronary flow): significantly increased
+dP/dt (isolated rat heart; [6]): significantly increased
−dP/dt (isolated rat heart; [6]): significantly increased
+dP/dt (isolated rat heart; [7]): significantly increased
−dP/dt (isolated rat heart; [7]): significantly increased
coronary resistance (isolated rat heart; sham caffeine vs sham saline): significantly decreased
coronary perfusion pressure (isolated rat heart; sham caffeine vs sham saline, highest flow rate): significantly reduced
heart rate (isolated rat heart; sham caffeine): 276+/−11 bpm
animals survived to 48 hours ([3]; CLP, caffeine 7.5 mg/kg i.p. daily from 24 hours, 48 hours): Eighty
animals survived to 72 hours ([3]; CLP, caffeine 7.5 mg/kg i.p. daily from 24 hours, 72 hours): 55%
animals survived to 96 hours ([3]; CLP, caffeine 7.5 mg/kg i.p. daily from 24 hours, 96 hours): 40%
mortality ([3]; sham operation, caffeine 7.5 mg/kg i.p. daily, to 96 hours): no mortality
